Biological target: T1, human mAChR M4 (Homo sapiens, UniProt P08173)
T1 construct: expressed in transfected cells; host or cells: CHO-K1 (American Type Culture Collection), stably expressing hM4 and Gqi5
T1 sequence (P08173 1-479): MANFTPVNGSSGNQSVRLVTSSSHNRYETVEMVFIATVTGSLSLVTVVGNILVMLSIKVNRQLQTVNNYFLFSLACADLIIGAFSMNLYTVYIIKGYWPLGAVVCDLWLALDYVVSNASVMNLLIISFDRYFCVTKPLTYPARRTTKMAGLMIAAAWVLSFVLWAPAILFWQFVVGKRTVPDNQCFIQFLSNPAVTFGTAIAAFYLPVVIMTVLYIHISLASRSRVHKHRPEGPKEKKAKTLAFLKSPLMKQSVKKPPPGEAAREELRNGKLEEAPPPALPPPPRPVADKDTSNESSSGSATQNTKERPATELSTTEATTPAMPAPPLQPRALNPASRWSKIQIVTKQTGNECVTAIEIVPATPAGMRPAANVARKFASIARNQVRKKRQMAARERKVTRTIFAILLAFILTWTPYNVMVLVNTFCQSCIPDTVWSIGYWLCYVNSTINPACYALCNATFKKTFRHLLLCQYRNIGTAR
Assay: mAChR M4 cell-based functional assay: calcium mobilization (Fluo-4, FDSS), potentiation of EC20 acetylcholine response in hM4-Gqi5 CHO-K1 cells
Details: human M4; for Emax at 30 µM: CHO-K1, % ACh maximum at 30 μM; for EC50: potentiation of EC20 acetylcholine response, calcium mobilization
Outline: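 CHO-K1 cells stably co-expressing human M4 and chimeric Gqi5, loaded with Fluo-4 AM (50 min, 37 °C). Compounds in 11-point 1:3 series added first; EC20 acetylcholine added at 144 s and again at 230 s. Calcium read on FDSS at 1 Hz; EC50 and Emax from four-parameter logistic fit of potentiated EC20 response.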

Structure (SMILES) | Emax at 30 µM [%] | EC50 [nM]
Cc1c(N2CCc3ncc(-c4ccnnc4)cc3C2)nn2c(=O)cc(C(F)F)nc2c1C [Compound 1-158, 2-(difluoromethyl)-8,9-dimethyl-7-(3-(pyridazin-4-yl)-7,8-dihydro-1,6-naphthyridin-6(5H)-yl)-4H-pyrimido[1,2-b]pyridazin-4-one] | 94 | 251
Cc1c(N2CCc3ncc(-c4cncnc4)cc3C2)nn2c(=O)cc(C(F)F)nc2c1C [Compound 1-159, 2-(difluoromethyl)-8,9-dimethyl-7-(3-(pyrimidin-5-yl)-7,8-dihydro-1,6-naphthyridin-6(5H)-yl)-4H-pyrimido[1,2-b]pyridazin-4-one] | 86 | 3060
Cc1c(N2CCc3ncc(-c4cncc(Cl)c4)cc3C2)nn2c(=O)cc(C(F)F)nc2c1C [Compound 1-160, 7-(3-(5-chloropyridin-3-yl)-7,8-dihydro-1,6-naphthyridin-6(5H)-yl)-2-(difluoromethyl)-8,9-dimethyl-4H-pyrimido[1,2-b]pyridazin-4-one] | 82 | 547
Cc1ccncc1-c1cnc2c(c1)CN(c1nn3c(=O)cc(C(F)F)nc3c(C)c1C)CC2 [Compound 1-161, 2-(difluoromethyl)-8,9-dimethyl-7-(3-(4-methylpyridin-3-yl)-7,8-dihydro-1,6-naphthyridin-6(5H)-yl)-4H-pyrimido[1,2-b]pyridazin-4-one] | 76 | 92
Cc1cc2nccn2cc1-c1cnc2c(c1)CN(c1nn3c(=O)cc(C(F)F)nc3c(C)c1C)CC2 [Compound 1-162, 2-(difluoromethyl)-8,9-dimethyl-7-(3-(7-methylimidazo[1,2-a]pyridin-6-yl)-7,8-dihydro-1,6-naphthyridin-6(5H)-yl)-4H-pyrimido[1,2-b]pyridazin-4-one] | 71 | 520
Cc1c(N2CCc3ncc(-c4cnn(-c5ccccn5)c4)cc3C2)nn2c(=O)cc(C(F)F)nc2c1C [Compound 1-163, 2-(difluoromethyl)-8,9-dimethyl-7-(3-(1-(pyridin-2-yl)-1H-pyrazol-4-yl)-7,8-dihydro-1,6-naphthyridin-6(5H)-yl)-4H-pyrimido[1,2-b]pyridazin-4-one] | 71 | 1020
Cc1ccc(-c2cnc3c(c2)CN(c2nn4c(=O)cc(C(F)F)nc4c(C)c2C)CC3)c(C)c1 [Compound 1-164, 2-(difluoromethyl)-7-(3-(2,4-dimethylphenyl)-7,8-dihydro-1,6-naphthyridin-6(5H)-yl)-8,9-dimethyl-4H-pyrimido[1,2-b]pyridazin-4-one] | 69 | 640
Cc1c(N2CCc3ncc(-c4cnn(-c5ccccc5F)c4)cc3C2)nn2c(=O)cc(C(F)F)nc2c1C [Compound 1-165, 2-(difluoromethyl)-7-(3-(1-(2-fluorophenyl)-1H-pyrazol-4-yl)-7,8-dihydro-1,6-naphthyridin-6(5H)-yl)-8,9-dimethyl-4H-pyrimido[1,2-b]pyridazin-4-one] | 47 | –
CCn1cc(-c2cnc3c(c2)CN(c2nn4c(=O)cc(C(F)F)nc4c(C)c2C)CC3)cn1 [Compound 1-166, 2-(difluoromethyl)-7-(3-(1-ethyl-1H-pyrazol-4-yl)-7,8-dihydro-1,6-naphthyridin-6(5H)-yl)-8,9-dimethyl-4H-pyrimido[1,2-b]pyridazin-4-one] | 86 | 283
COc1cncc(-c2cnc3c(c2)CN(c2nn4c(=O)cc(C(F)F)nc4c(C)c2C)CC3)c1 [Compound 1-167, 2-(difluoromethyl)-7-(3-(5-methoxypyridin-3-yl)-7,8-dihydro-1,6-naphthyridin-6(5H)-yl)-8,9-dimethyl-4H-pyrimido[1,2-b]pyridazin-4-one] | 80 | 353
COc1ncc(-c2cnc3c(c2)CN(c2nn4c(=O)cc(C(F)F)nc4c(C)c2C)CC3)cc1Cl [Compound 1-168, 7-(3-(5-chloro-6-methoxypyridin-3-yl)-7,8-dihydro-1,6-naphthyridin-6(5H)-yl)-2-(difluoromethyl)-8,9-dimethyl-4H-pyrimido[1,2-b]pyridazin-4-one] | 72 | 2310
Cc1ccc(-c2cnc3c(c2)CN(c2nn4c(=O)cc(C(F)F)nc4c(C)c2C)CC3)cc1 [Compound 1-169, 2-(difluoromethyl)-8,9-dimethyl-7-(3-(p-tolyl)-7,8-dihydro-1,6-naphthyridin-6(5H)-yl)-4H-pyrimido[1,2-b]pyridazin-4-one] | 89 | 883
COc1ccc(-c2cnc3c(c2)CN(c2nn4c(=O)cc(C(F)F)nc4c(C)c2C)CC3)cn1 [Compound 1-170, 2-(difluoromethyl)-7-(3-(6-methoxypyridin-3-yl)-7,8-dihydro-1,6-naphthyridin-6(5H)-yl)-8,9-dimethyl-4H-pyrimido[1,2-b]pyridazin-4-one] | 95 | 185
Cc1ccc(F)cc1-c1cnc2c(c1)CN(c1nn3c(=O)cc(C(F)F)nc3c(C)c1C)CC2 [Compound 1-171, 2-(difluoromethyl)-7-(3-(5-fluoro-2-methylphenyl)-7,8-dihydro-1,6-naphthyridin-6(5H)-yl)-8,9-dimethyl-4H-pyrimido[1,2-b]pyridazin-4-one] | 91 | 429
Cc1c(N2CCc3ncc(-c4cnn(C(F)F)c4)cc3C2)nn2c(=O)cc(C(F)F)nc2c1C [Compound 1-172, 2-(difluoromethyl)-7-(3-(1-(difluoromethyl)-1H-pyrazol-4-yl)-7,8-dihydro-1,6-naphthyridin-6(5H)-yl)-8,9-dimethyl-4H-pyrimido[1,2-b]pyridazin-4-one] | 85 | 114
Cc1c(N2CCc3ncc(-c4cnn(CCN5CCOCC5)c4)cc3C2)nn2c(=O)cc(C(F)F)nc2c1C [Compound 1-173, 2-(difluoromethyl)-8,9-dimethyl-7-(3-(1-(2-morpholinoethyl)-1H-pyrazol-4-yl)-7,8-dihydro-1,6-naphthyridin-6(5H)-yl)-4H-pyrimido[1,2-b]pyridazin-4-one] | 81 | 338

The next lines start with the values.

Emax at 30 µM [%] | EC50 [nM] | Structure (SMILES)
82 | 450 | Cc1c(N2CCc3ncc(-c4ccc(Cl)nc4Cl)cc3C2)nn2c(=O)cc(C(F)F)nc2c1C [Compound 1-174, 7-(3-(2,6-dichloropyridin-3-yl)-7,8-dihydro-1,6-naphthyridin-6(5H)-yl)-2-(difluoromethyl)-8,9-dimethyl-4H-pyrimido[1,2-b]pyridazin-4-one]
61 | 4660 | Cc1cc(=O)n2nc(N3CCc4ncc(-c5cnn(-c6ccccn6)c5)cc4C3)c(C)c(C)c2n1 [Compound 1-175, 2,8,9-trimethyl-7-(3-(1-(pyridin-2-yl)-1H-pyrazol-4-yl)-7,8-dihydro-1,6-naphthyridin-6(5H)-yl)-4H-pyrimido[1,2-b]pyridazin-4-one]
74 | 4840 | Cc1cc(=O)n2nc(N3CCc4ncc(-c5ccnn5C5COC5)cc4C3)c(C)c(C)c2n1 [Compound 1-176, 2,8,9-trimethyl-7-(3-(1-(oxetan-3-yl)-1H-pyrazol-5-yl)-7,8-dihydro-1,6-naphthyridin-6(5H)-yl)-4H-pyrimido[1,2-b]pyridazin-4-one]
84 | 1420 | Cc1cc(=O)n2nc(N3CCc4ncc(-c5cnn(CCN(C)C)c5)cc4C3)c(C)c(C)c2n1 [Compound 1-177, 7-(3-(1-(2-(dimethylamino)ethyl)-1H-pyrazol-4-yl)-7,8-dihydro-1,6-naphthyridin-6(5H)-yl)-2,8,9-trimethyl-4H-pyrimido[1,2-b]pyridazin-4-one]
74 | 2510 | Cc1cc(=O)n2nc(N3CCc4ncc(-c5cnn(CCN6CCOCC6)c5)cc4C3)c(C)c(C)c2n1 [Compound 1-178, 2,8,9-trimethyl-7-(3-(1-(2-morpholinoethyl)-1H-pyrazol-4-yl)-7,8-dihydro-1,6-naphthyridin-6(5H)-yl)-4H-pyrimido[1,2-b]pyridazin-4-one]
85 | 805 | Cc1cc(=O)n2nc(N3CCc4ncc(-c5cnn(C6COC6)c5)cc4C3)c(C)c(C)c2n1 [Compound 1-179, 2,8,9-trimethyl-7-(3-(1-(oxetan-3-yl)-1H-pyrazol-4-yl)-7,8-dihydro-1,6-naphthyridin-6(5H)-yl)-4H-pyrimido[1,2-b]pyridazin-4-one]
63 | 2470 | Cc1cc(=O)n2nc(N3CCc4ncc(-c5cnn(-c6ccccc6F)c5)cc4C3)c(C)c(C)c2n1 [Compound 1-180, 7-(3-(1-(2-fluorophenyl)-1H-pyrazol-4-yl)-7,8-dihydro-1,6-naphthyridin-6(5H)-yl)-2,8,9-trimethyl-4H-pyrimido[1,2-b]pyridazin-4-one]
95 | 648 | Cc1cc(=O)n2nc(N3CCc4ncc(-c5cnn6ccccc56)cc4C3)c(C)c(C)c2n1 [Compound 1-181, 2,8,9-trimethyl-7-(3-(pyrazolo[1,5-a]pyridin-3-yl)-7,8-dihydro-1,6-naphthyridin-6(5H)-yl)-4H-pyrimido[1,2-b]pyridazin-4-one]

— patent publication US20250101041A1, “POSITIVE ALLOSTERIC MODULATORS OF THE MUSCARINIC ACETYLCHOLINE RECEPTOR M4” (Vanderbilt University, priority 2022, published 2025)
